Laboratory results published in patent US11707454B2, “Topical roflumilast formulation having antifungal properties” (ARCUTIS BIOTHERAPEUTICS, INC., priority 2020, dated 2023).
Read-outs that look alike come from different tables or passages of the source.

How the values were obtained:
Format in all cases: cell-based
[1] = system: Malassezia species and Candida species; assay: in vitro micro-dilution susceptibility assay, summary over all isolates; details: negative control
Method: The in vitro susceptibility of Malassezia species to roflumilast was determined utilizing three Candida species as internal control isolates for all testing. These three isolates were C. albicans American Type Culture Collection (ATCC) 90028, C. krusei (ATCC 6258) and C. parapsilosis (ATCC 22019). In addition to testing roflumilast all susceptibility assays were conducted using ketoconazole and hydrocortisone as positive and negative control compounds, respectively. All assays were placed within a humidified incubator set to 32° C. for a total of seven days. Each assay was evaluated after 12 hours of incubation and, every 24 hours post incubation for a total of seven days. The assays were evaluated for visual growth of each pathogen in the no treatment control as well as determination of minimum inhibition concentration (MIC) values. The concentration that provides a 3-log10 CFU/mL reduction in fungal burden from baseline at day 0 was defined as the minimum fungicidal concentration (MHC) and was determined by quantifying fungal burdens found in the microplate at day seven. […]

C. albicans (ATCC 90028) = assay: in vitro micro-dilution susceptibility assay (method of Rojas); details: Candida albicans, read-out: minimum inhibition concentration (MIC)
Method: (§1) The in vitro susceptibility of Malassezia species to roflumilast was determined utilizing three Candida species as internal control isolates for all testing. These three isolates were C. albicans American Type Culture Collection (ATCC) 90028, C. krusei (ATCC 6258) and C. parapsilosis (ATCC 22019). In addition to testing roflumilast all susceptibility assays were conducted using ketoconazole and hydrocortisone as positive and negative control compounds, respectively. All assays were placed within a humidified incubator set to 32° C. for a total of seven days. Each assay was evaluated after 12 hours of incubation and, every 24 hours post incubation for a total of seven days. The assays were evaluated for visual growth of each pathogen in the no treatment control as well as determination of minimum inhibition concentration (MIC) values. The concentration that provides a 3-log10 CFU/mL reduction in fungal burden from baseline at day 0 was defined as the minimum fungicidal concentration (MHC) and was determined by quantifying fungal burdens found in the microplate at day seven.
(§2) The method of Rojas (Rojas F D, et al. Antifungal susceptibility of Malassezia furfur, Malassezia sympodialis, and Malassezia globose to azole drugs and amphotericin B evaluated using a broth microdilution method. 2014. Medical Mycology. 52:641-646) was used in which the liquid broth medium was RPMI 1640 with added 1.8% glucose, 1% peptone, 0.5% ox-bile, 0.5% malt extract, 1% glycerol, 0.5% Tween 40 and 0.05% Tween 80. Round bottom 96 well microplates were used. The inoculums were prepared in sterile saline and diluted to a final targeted concentration of 0.5×10^5 to 2.5×10^5 CFU/mL in supplemented RPMI. […] For the internal control isolate C. parapsilosis (ATCC 22019) the expected CLSI values for ketoconazole of 0.03-0.25 (at 24 hours) and 0.06-0.5 (at 48 hours) did agree with the 2-day value (Table A) of 0.5.

M. furfur (ATCC 14521) = assay: as above; details: for MIC: Malassezia furfur, read-out: minimum inhibition concentration (MIC)
Method: as §1, §2

[2] = system: C. parapsilosis (ATCC 22019); assay: as above; details: Lodderomyces parapsilosis, C. parapsilosis (22019), read-out: minimum inhibition concentration (MIC)
Method: as §1, §2

[3] = system: M. restricta (ATCC MYA-4611); assay: as above; details: for MIC: read-out: minimum inhibition concentration (MIC)
Method: as §1, §2

[4] = system: M. globose (ATCC MYA-4889); assay: as above; details: for MIC: read-out: minimum inhibition concentration (MIC)
Method: as §1, §2

C. krusei (ATCC 6258) = assay: as above; details: Pichia kudriavzevii, read-out: minimum inhibition concentration (MIC)
Method: as §1, §2

M. furfur (ATCC 44344) = assay: as above; details: for MIC: Malassezia furfur, read-out: minimum inhibition concentration (MIC)
Method: as §1, §2

M. furfur (ATCC 12078) = assay: as above; details: for MIC: Malassezia furfur, read-out: minimum inhibition concentration (MIC)
Method: as §1, §2

MIC (C. albicans (ATCC 90028); ATCC90028, 12 h, Time 0.5 days): > 1020 µg/mL
MIC (C. albicans (ATCC 90028); ATCC90028, 24 h, Time 1 days): > 1020 µg/mL
MIC (C. albicans (ATCC 90028); ATCC90028, 48 h, Time 2 days): > 1020 µg/mL
MIC (C. albicans (ATCC 90028); ATCC90028, 72 h, Time 3 days): > 1020 µg/mL
MIC (C. albicans (ATCC 90028); ATCC90028, 96 h, Time 4 days): > 1020 µg/mL
MIC (C. albicans (ATCC 90028); ATCC90028, 120 h, Time 5 days): > 1020 µg/mL
MIC (C. albicans (ATCC 90028); ATCC90028, 144 h, Time 6 days): > 1020 µg/mL
MIC (C. albicans (ATCC 90028); ATCC90028, 168 h, Time 7 days): > 1020 µg/mL
MIC (M. furfur (ATCC 14521); ATCC14521, 48 h, Time 2 days): > 1020 µg/mL
MIC (M. furfur (ATCC 14521); ATCC14521, 72 h, Time 3 days): > 1020 µg/mL
MIC (M. furfur (ATCC 14521); ATCC14521, 96 h, Time 4 days): > 1020 µg/mL
MIC (M. furfur (ATCC 14521); ATCC14521, 120 h, Time 5 days): > 1020 µg/mL
MIC (M. furfur (ATCC 14521); ATCC14521, 144 h, Time 6 days): > 1020 µg/mL
MIC (M. furfur (ATCC 14521); ATCC14521, 168 h, Time 7 days): > 1020 µg/mL
minimum inhibition concentration (MIC) (M. furfur (ATCC 14521); Time 0.5 days): NGO
minimum inhibition concentration (MIC) (M. furfur (ATCC 14521); Time 1 days): NGO
MIC ([2]; ATCC22019, 12 h, Time 0.5 days): > 1020 µg/mL
MIC ([2]; ATCC22019, 24 h, Time 1 days): > 1020 µg/mL
MIC ([2]; ATCC22019, 48 h, Time 2 days): > 1020 µg/mL
MIC ([2]; ATCC22019, 72 h, Time 3 days): > 1020 µg/mL
MIC ([2]; ATCC22019, 96 h, Time 4 days): > 1020 µg/mL
MIC ([2]; ATCC22019, 120 h, Time 5 days): > 1020 µg/mL
MIC ([2]; ATCC22019, 144 h, Time 6 days): > 1020 µg/mL
MIC ([2]; ATCC22019, 168 h, Time 7 days): > 1020 µg/mL
MIC ([3]; 120 h, Time 5 days): > 1020 µg/mL
MIC ([3]; 144 h, Time 6 days): > 1020 µg/mL
MIC ([3]; 168 h, Time 7 days): > 1020 µg/mL
minimum inhibition concentration (MIC) ([3]; Time 0.5 days): NGO
minimum inhibition concentration (MIC) ([3]; Time 1 days): NGO
minimum inhibition concentration (MIC) ([3]; Time 2 days): NGO
minimum inhibition concentration (MIC) ([3]; Time 3 days): NGO
minimum inhibition concentration (MIC) ([3]; Time 4 days): NGO
MIC ([4]; 120 h, Time 5 days): > 1020 µg/mL
MIC ([4]; 144 h, Time 6 days): > 1020 µg/mL
MIC ([4]; 168 h, Time 7 days): > 1020 µg/mL
minimum inhibition concentration (MIC) ([4]; Time 0.5 days): NGO
minimum inhibition concentration (MIC) ([4]; Time 1 days): NGO
minimum inhibition concentration (MIC) ([4]; Time 2 days): NGO
minimum inhibition concentration (MIC) ([4]; Time 3 days): NGO
minimum inhibition concentration (MIC) ([4]; Time 4 days): NGO
MIC (C. krusei (ATCC 6258); ATCC6258, 12 h, Time 0.5 days): > 1020 µg/mL
MIC (C. krusei (ATCC 6258); ATCC6258, 24 h, Time 1 days): > 1020 µg/mL
MIC (C. krusei (ATCC 6258); ATCC6258, 48 h, Time 2 days): > 1020 µg/mL
MIC (C. krusei (ATCC 6258); ATCC6258, 72 h, Time 3 days): > 1020 µg/mL
MIC (C. krusei (ATCC 6258); ATCC6258, 96 h, Time 4 days): > 1020 µg/mL
MIC (C. krusei (ATCC 6258); ATCC6258, 120 h, Time 5 days): > 1020 µg/mL
MIC (C. krusei (ATCC 6258); ATCC6258, 144 h, Time 6 days): > 1020 µg/mL
MIC (C. krusei (ATCC 6258); ATCC6258, 168 h, Time 7 days): > 1020 µg/mL
MIC (M. furfur (ATCC 44344); ATCC44344, 48 h, Time 2 days): > 1020 µg/mL
MIC (M. furfur (ATCC 44344); ATCC44344, 72 h, Time 3 days): > 1020 µg/mL
MIC (M. furfur (ATCC 44344); ATCC44344, 96 h, Time 4 days): > 1020 µg/mL
MIC (M. furfur (ATCC 44344); ATCC44344, 120 h, Time 5 days): > 1020 µg/mL
MIC (M. furfur (ATCC 44344); ATCC44344, 144 h, Time 6 days): > 1020 µg/mL
MIC (M. furfur (ATCC 44344); ATCC44344, 168 h, Time 7 days): > 1020 µg/mL
minimum inhibition concentration (MIC) (M. furfur (ATCC 44344); Time 0.5 days): NGO
minimum inhibition concentration (MIC) (M. furfur (ATCC 44344); Time 1 days): NGO
MIC (M. furfur (ATCC 12078); ATCC12078, 48 h, Time 2 days): > 1020 µg/mL
MIC (M. furfur (ATCC 12078); ATCC12078, 72 h, Time 3 days): > 1020 µg/mL
MIC (M. furfur (ATCC 12078); ATCC12078, 96 h, Time 4 days): > 1020 µg/mL
MIC (M. furfur (ATCC 12078); ATCC12078, 120 h, Time 5 days): > 1020 µg/mL
MIC (M. furfur (ATCC 12078); ATCC12078, 144 h, Time 6 days): > 1020 µg/mL
MIC (M. furfur (ATCC 12078); ATCC12078, 168 h, Time 7 days): > 1020 µg/mL
minimum inhibition concentration (MIC) (M. furfur (ATCC 12078); Time 0.5 days): NGO
minimum inhibition concentration (MIC) (M. furfur (ATCC 12078); Time 1 days): NGO
SMILES: C[C@]12CCC(=O)C=C1CC[C@@H]1[C@@H]2[C@@H](O)C[C@@]2(C)[C@H]1CC[C@]2(O)C(=O)CO [Hydrocortisone]
anti-fungal activity (all isolates) [1]: no anti-fungal activity
